Test results from ChEMBL document CHEMBL2069290, “Synthesis and biological evaluation of novel oxindole derivatives for imaging neurofibrillary tangles in Alzheimer's disease” (Bioorg Med Chem Lett, 2012).

Organism: Homo sapiens
Assay: Selectivity ratio of Ki for amyloid beta(1 to 42) to Ki for human Tau
Conditions: not given

Ratio Ki	SMILES
7.33	O=C1/C(=C/c2ccc(-c3cccc(I)c3)o2)NC(=S)N1CCc1c[nH]cn1

Organism: Homo sapiens
Assay: Selectivity ratio of Kd for amyloid beta(1 to 42) to Kd for human Tau
Conditions: not given

Ratio	SMILES
1.54	CN(C)c1ccc(/N=N/c2nc3ccc(OCCOCCOCCF)cc3s2)cc1

Organism: Homo sapiens
Assay: Selectivity ratio of EC50 for amyloid beta(1 to 42) to EC50 for human Tau
Conditions: not given

Ratio EC50	SMILES
1.65	CNc1ccc(-c2ccc3ccccc3n2)cc1

The compounds below were run on Brain (assay: Ratio of drug uptake in ddY mouse brain after 2 mins to drug uptake in ddY mouse brain after 30 mins). Conditions: in vivo.
Assay type: ADME, tissue-based

SMILES	Ratio
O=C1/C(=C/c2ccc(-c3cccc([125I])c3)o2)NC(=S)N1CCc1c[nH]cn1	2.33
[11CH3]Nc1ccc(-c2ccc3ccccc3n2)cc1	3.65

Next, values leading:

Ratio	SMILES
< 2	Nc1ccc(-c2ccc3cc(OCC[18F])ccc3n2)cc1
1.23	CN(C)c1ccc(/N=N/c2nc3ccc(OCCOCCOCC[18F])cc3s2)cc1
